The target of this experiment is T1, STR3 (Trire2_62380) (Trichoderma reesei, UniProt G0RKF0).
T1 construct: gene TRIREDRAFT_62380
The experiment can be described thus: two-electrode voltage clamp in Xenopus oocytes, transport current. The experiment is classed as cell-based. Conditions: pH 5.5, -50 mV, H+ symport.

T1 sequence (G0RKF0 entry or part of it): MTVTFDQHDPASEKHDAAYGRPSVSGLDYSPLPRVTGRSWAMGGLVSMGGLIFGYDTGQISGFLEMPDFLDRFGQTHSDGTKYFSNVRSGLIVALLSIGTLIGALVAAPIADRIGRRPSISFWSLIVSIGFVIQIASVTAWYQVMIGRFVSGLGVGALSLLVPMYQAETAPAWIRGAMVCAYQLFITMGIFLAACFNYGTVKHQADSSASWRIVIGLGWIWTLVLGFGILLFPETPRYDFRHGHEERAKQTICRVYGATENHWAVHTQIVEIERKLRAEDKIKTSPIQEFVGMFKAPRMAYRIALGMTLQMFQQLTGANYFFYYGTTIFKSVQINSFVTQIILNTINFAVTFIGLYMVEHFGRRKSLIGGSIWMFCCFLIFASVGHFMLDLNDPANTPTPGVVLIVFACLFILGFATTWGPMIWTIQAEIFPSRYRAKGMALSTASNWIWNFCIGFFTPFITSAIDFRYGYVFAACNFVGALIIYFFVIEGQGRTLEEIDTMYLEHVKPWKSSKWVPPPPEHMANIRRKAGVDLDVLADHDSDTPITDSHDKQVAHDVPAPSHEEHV

By Km is commonly meant the substrate concentration at which the rate is half of its maximum. Regarding `OC[C@H]1OC(O)[C@H](O)[C@@H](O)[C@H]1O` (stereo partly drawn) [D-galactose], the Km turned out to be 1110 ± 490 µM.
As for `OC[C@H]1OC(O)[C@H](O)[C@@H](O)[C@@H]1O` (stereo partly drawn) [D-glucose], the Km was 57.9 ± 17.7 µM.
To `OC[C@H]1OC(O)[C@@H](O)[C@@H](O)[C@@H]1O` (stereo partly drawn) [D-mannose] belongs 186 ± 18.9 µM.

The values above are taken from publication PMC8290022, “Electrophysiological characterization of a diverse group of sugar transporters from Trichoderma reesei” (Scientific Reports, 2021).
